The source of these data is US6277867A, “Pesticide compounds, compositions and process for the preparation thereof” (priority 1995, dated 2001).

Data set [1] deals with resistant house fly, INSEL strain. Description: Synergistic activity on resistant house fly, INSEL strain. Type of data set: in vivo, Musca domestica. The protocol: (§1) Investigation of Synergistic Activity on Resistant House Fly (Musca domestica) Populations
(§2) Investigation was carried out as described in biological Example 1. LD50 values and synergist ratios were determined as given in Example 2.

Data set [2] concerns resistant house fly, IX strain. The data set is described as follows: Synergistic activity on resistant house fly, IX strain. Type of data set: in vivo, Musca domestica. The protocol: as §1, §2
For data set [3], the system named is two-spotted spider mite (Tetranychus urticae). Description: Synergism of acaricidal effect on two-spotted spider mite (leaf-disc dip). Type of data set: in vivo. The protocol:
Synergism of Acaricidal Effect Investigated on Two-spotted Spider Mite (Tetranychus urticae)
From the first pair of leaves of a 1 week old bean plant leaf-discs of […] diameter were cut which were treated by dipping them (5 min) into the test solution consisting of the active ingredient and the synergist in definite concentrations. For the preparation of the stock solutions of required concentration, 10% acetone as co-solvent and 0.1% Tween-80 as detergent were applied. The dried leaf-discs were placed on wet surface and they were infected with […]-up female mites per leaf. After 48 hours the mortality was recorded using microscope and a brush. The experiment was performed in 4 replica.

The test system is the same in data set [4]. The data set is described as follows: Synergist activity of compound 599 against two-spotted spider mite. It counts as in vivo. The method, then: From the first pair of leaves of a 1 week old bean plant leaf-discs of […] diameter were cut which were treated by dipping them (5 min) into the test solution consisting of the active ingredient and the synergist in definite concentrations. For the preparation of the stock solutions of required concentration, 10% acetone as co-solvent and 0.1% Tween-80 as detergent were applied. The dried leaf-discs were placed on wet surface and they were infected with […]-up female mites per leaf. […] The experiment was performed in 4 replica.
Synergist activity of compound 599 with various specific acaricides was investigated against two-spotted spider mite (Tetranychus urticae), by the method described in Example 8.

Data set [5] concerns pea aphid (Acyrthosiphon pisun). Description: Synergist activity against pea aphid, field trial. To be noted: two days after treatment. It counts as in vivo. The protocol: Synergist Activity Against Pea Aphid (Acyrthosiphon pisun)
Synergist activity of compound No. 599 was tested against pea aphid (Acyrthosiphon pisun) in field trials on small plots (10 m^2). 300 l/ha spray volume was applied using motoric sprayer (Maruyama). Efficacy was expressed by the average number of aphids/leaf before, and two days after the treatment, respectively. (Henderson and Tilton: J. Econ. Entomol., 48:157, 1955).

Data set [6] deals with house fly (Musca domestica). To be noted: in vivo, topical_or_ocular, 1440 min. The method, then:
Investigation of Synergistic Activity on House Fly (Musca domestica) Following Topical Application
In two parallel experiments 10 female. 2-4 day old house flies were treated on the vental side of their thorax with 0.2 μl of the test solution, with the help of Hamilton MicroLab P microdispenser. Beside fixed synergist dose of 1000 ng/fly the animals were treated with carbofuran at a dose of 20 ng/fly. For solvent cellosolve was used. Selection and counting of the flies were performed under the action of CO2. After treatment the flies were kept in plastic cups covered with tulle. Mortality after 24 hours was expressed in %.

In data set [7] the test system is cotton bollworm (Helicoverpa armigera). The data set is described as follows: Synergistic activity on cotton bollworm following topical application. The conditions noted are these: in vivo. The method, then:
Investigation of Synergistic Activity on Cotton Bollworm (Helicoverpa armigera) Following Topical Application
Treatment was performed similarity as described in Example 1. but L2 stadium grubs of cotton bollworms (Helicoverpa armigera) were treated as test animals. From the 24 hour dose--mortality data the LD50 (ng/grub) values were determined using probit analysis. None of the synergists acted at the applied 1000 ng/grub dose. Synergist ratio was calculated as the quotient of the LD50 values of carbofuran administered alone, and with the synergist. The experiments were performed in 2-4 replica.

For data set [8], the system named is house fly (Musca domestica). The data set is described as follows: Synergist spectrum on house fly, topical. Type of data set: in vivo. The method, then: (§3) Investigation of Synergist Spectrum on House Fly (Musca domestica) and Cotton Bollworm (Helicoverpa armigera) Following Topical Administration
(§4) Synerzistic activities of materials No. 279 and 599 of the present invention for various active ingredients were determined on house fly (Musca domestica) and cotton bollworm (Helicoverpa armigera) using methods of treatments as described in biological Examples 1 and 2. For the active ingredients ISO common names are given (see: Pesticide Manual 1994).

In data set [9] the test system is cotton bollworm (Helicoverpa armigera). Description: Synergist spectrum on cotton bollworm, topical. Type of data set: in vivo. The protocol: as §3, §4
A further data set concerns flies. The data set is described as follows: Comparative investigations with known reference synergists on flies treated with carbofuran. It counts as in vivo. The conditions noted are these: flies treated with carbofuran and 1000 ng of the synergist. The source says: These SR50 ratios were compared to those of the new compounds prepared by us.
The test system of data set [10] is house fly (Musca domestica). The data set is described as follows: Effect of the active ingredient:synergist ratio on the synergistic activity (flies). The protocol:
Effect of the Active Ingredient:Synergist Ratio on the Synergistic Activity
Treatment was performed as described in Example 1. using Hamilton MicroLab P microdispenser. In two parallel experiments 10 female -3 day old flies were treated on the ventral side of their thorax with 0.2 μl test solution. Beside 1000-400-200-80 ng/fly fixed doses of the synergist they were treated with constant 20 ng/fly CARBOFURAN®. Selection and counting of the flies were performed under the action of CO2. After treatment the flies were kept in plastic cups covered with tulle. After 24 hours mortality % was recorded. Depending on the results the experiments were performed in 2-4 replica.

Setting [11] is: Acaricide/Synergist 1:0, 3 h, read-out: LC50.
Setting [12] is: Acaricide/Synergist 1:0, 24 h, read-out: LC50.

Each structure is given as a SMILES string. Like-named read-outs stand apart in the source and are kept apart here. Where only a bound is given, the exact number is not on record here.

Broadly, the mortality is the percentage killed. What is called LC50 is the concentration that kills 50% of the test population. Take `CNC(=O)Oc1cccc2c1OC(C)(C)C2` [CARBOFURAN, reference compound]: in [1] (active ingredient alone), the LD50 was 15375 ng/fly. The LD50 in data set [2] (active ingredient alone) is recorded as greater than 100000 ng/fly. Also, in [3] (48 h), the mortality at 31 ppm was 13%, the mortality at 62 ppm was determined as 39%, the mortality at 125 ppm turned out to be 44% and the mortality at 250 ppm is 81%. In data set [3] (48 h), the mortality at 500 ppm is 90%. Also, in data set [4] (24 h), the LC50 amounted to 164 µg/mL. The “E (%)” value in data set [5] (dose 110 act. ingr./ha) came to 98.0%. Besides, the “E (%)” value in data set [5] (dose 160 act. ingr./ha) was found to be 99.1%.

Consider `CC#CCOCc1cccc2ccccc12` [Compound 279, 1-naphthyl-methyl 2-butynyl ether], for which the mortality % in [6] stood at 72%. The Synergist ratio in [7] was greater than 5; in [8] (with AMINOCARB) it was greater than 20; in data set [8] (with AZINPHOSMETHYL), greater than 5; in [8] (with BENDIOCARB) it was greater than 20; in data set [8] (with CARBOFURAN), greater than 20; in [8] (with CHLORPYRIPHOS), greater than 5. Further, the Synergist ratio in [8] (with DIOXACARB) is greater than 20; in data set [8] (with ESBIOL), greater than 5; in data set [8] (with FENOBUCARB) it was greater than 10; in data set [8] (with IMIDACLOPRID), greater than 5; in data set [8] (with ISOPROCARB), greater than 40; in [8] (with LINDAN) it was greater than 5. The Synergist ratio was greater than 10 in data set [8] (with METHOMYL); greater than 20 in data set [8] (with PIRIMICARB); greater than 20 in data set [8] (with PROPOXUR); greater than 10 in [8] (with THIODICARB); greater than 5 in data set [9] (with AZINPHOSMETHYL); greater than 10 in data set [9] (with BENDIOCARB). Moreover, the Synergist ratio was greater than 10 in [9] (with CARBOFURAN), greater than 5 in data set [9] (with CHLORPYRIPHOS), greater than 5 in data set [9] (with LINDAN) and greater than 10 in data set [9] (with PROPOXUR). Moreover, the LD50 in [1] (ALDICARB + 279) came out at 172 ng/fly; in data set [1] (BENDIOCARB + 279), 150 ng/fly; in data set [1] (CARBOFURAN + 279), 29 ng/fly; in [1] (ESBIOL + 279), 794 ng/fly; in data set [1] (ISOPROCARB + 279), 983 ng/fly; in [1] (METHOMYL + 279), 46 ng/fly. Moreover, the LD50 in data set [1] (PIRIMICARB + 279) was found to be 696 ng/fly; in data set [2] (ALDICARB + 279) it was 507 ng/fly; in data set [2] (BENDIOCARB + 279) it was 746 ng/fly; in data set [2] (CARBOFURAN + 279) it was 94 ng/fly; in [2] (ISOPROCARB + 279), 2145 ng/fly; in data set [2] (METHOMYL + 279), 109 ng/fly. In data set [2] (PIRIMICARB + 279), the LD50 was 3562 ng/fly. Further, the SR in [1] (ALDICARB + 279) amounted to 4; in data set [1] (BENDIOCARB + 279) it was 667; in [1] (CARBOFURAN + 279), 530; in data set [1] (ESBIOL + 279), 13; in [1] (ISOPROCARB + 279), 102; in data set [1] (METHOMYL + 279), 10. The SR in data set [1] (PIRIMICARB + 279) was 145; in [2] (ALDICARB + 279), 4; in data set [2] (BENDIOCARB + 279), 134; in [2] (CARBOFURAN + 279) it was 4760; in data set [2] (ISOPROCARB + 279) it was 47; in data set [2] (METHOMYL + 279) it was 5. The SR in [2] (PIRIMICARB + 279) is reported as 115. For the same molecule, the mortality at 31 ppm in [3] (alone, 31 ppm, 48 hours, read-out: Mortality %) worked out at 0%. Besides, in data set [3] (alone, 62 ppm, 48 hours, read-out: Mortality %), the mortality at 62 ppm worked out at 6%. Moreover, the mortality at 125 ppm in data set [3] (alone, 125 ppm, 48 hours, read-out: Mortality %) worked out at 8%. In data set [3] (alone, 250 ppm, 48 hours, read-out: Mortality %), the mortality at 250 ppm was found to be 18%. In addition, in data set [3] (alone, 500 ppm, 48 hours, read-out: Mortality %), the mortality at 500 ppm came out at 30%. Further, the “Synergist ratio SR50” value with flies came to 28.7.

Regarding `CC#CCOC(C)c1ccc(OC)c(OC)c1` (stereo not drawn) [Compound 599], in data set [6], the mortality % is reported as 100%. Also, the Synergist ratio in data set [7] is on record as greater than 5; in [8] (with AMINOCARB), greater than 20; in [8] (with BENDIOCARB) it was greater than 40; in data set [8] (with CARBOFURAN), greater than 20; in data set [8] (with DIOXACARB), greater than 40; in [8] (with ESBIOL), greater than 10. In addition, the Synergist ratio in data set [8] (with FENOBUCARB) is greater than 20; in data set [8] (with IMIDACLOPRID), greater than 5; in data set [8] (with ISOPROCARB), greater than 40; in data set [8] (with METHOMYL), greater than 10; in data set [8] (with PERMETHRIN) it was greater than 5; in [8] (with PIRIMICARB) it was greater than 20. Moreover, the Synergist ratio in [8] (with PROPOXUR) was greater than 40; in data set [8] (with TETRAMETHRIN), greater than 5; in data set [8] (with THIODICARB), greater than 10; in [9] (with BENDIOCARB), greater than 20; in [9] (with CARBOFURAN), greater than 20; in data set [9] (with DIOXACARB), greater than 20. Besides, the Synergist ratio in [9] (with ISOPROCARB) is greater than 20; in [9] (with PERMETHRIN) it was greater than 10; in data set [9] (with PROPOXUR) it was greater than 20. Also, the “24 hour mortality (%)” value in data set [10] (carbofuran 20 ng/fly + synergist 80 ng/fly) worked out at 65%; in [10] (carbofuran 20 ng/fly + synergist 200 ng/fly), 90%; in data set [10] (carbofuran 20 ng/fly + synergist 400 ng/fly), 95%; in data set [10] (house fly, in vivo, topical_or_ocular), 100%.

With `CC(C)(C)c1ccc(CCOc2ncnc3ccccc23)cc1` [FENAZAQUIN], the LC50 was greater than 1000 µg/mL in data set [4] (setting [11]) and 41.9 µg/mL in [4] (setting [12]).

With `N#Cc1nn(-c2c(Cl)cc(C(F)(F)F)cc2Cl)c(N)c1[S+]([O-])C(F)(F)F` (stereo not drawn) [FIPRONIL], the “E (%)” value in [5] (dose 240 act. ingr./ha) is 94.6%.

Turning to `O=[N+]([O-])NC1=NCCN1Cc1ccc(Cl)nc1` [IMIDACLOPRID], the “E (%)” value in [5] (dose 120 act. ingr./ha) came out at 98.4%.

For the molecule `Cc1nc(N(C)C)nc(OC(=O)N(C)C)c1C` [PIRIMICARB, reference compound], the LD50 in [1] (active ingredient alone) and in data set [2] (active ingredient alone) was greater than 100000 ng/fly in each case. For the same molecule, the “E (%)” value in data set [5] (dose 80 act. ingr./ha) stood at 86.3%; in [5] (dose 250 act. ingr./ha), 93.8%.

With `CCc1nn(C)c(C(=O)NCc2ccc(C(C)(C)C)cc2)c1Cl` [TEBUFENPYRAD], the LC50 in data set [4] (setting [11]) was greater than 1000 µg/mL; in data set [4] (setting [12]), 63.4 µg/mL.

With `CCOC(=O)CSc1nc(C(C)(C)C)nn1C(=O)N(C)C` [TRIAZAMATE], in data set [5] (dose 50 act. ingr./ha), the “E (%)” value is on record as 96.8%.
